# Patent US20150307520A1, “NOVEL HETEROARYL AND HETEROCYCLE COMPOUNDS, COMPOSITIONS AND METHODS THEREOF” (HUTCHISON MEDIPHARMA LIMITED, priority 2012, published 2015)
# Experiments:
# p110γ = p110γ (Homo sapiens, UniProt P48736); test: Transcreener KINASE Assay, kinase inhibition of p110γ; type: biochemical; conditions: for PI3Kγ IH % @ 1 uM: 1 uM test compound; for IC50: read-out: PI3Kγ IC50
# Procedure, shortened: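 ADP-detecting fluorescence polarization immunoassay run as two-step endpoint: kinase reaction for 80 min, detection for 60 min, both at room temperature. Enzymes are recombinant p110 isoforms with p85α, except p110γ. IC50s derived from fitted inhibition curves.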
# p110α/p85α = p110α/p85α (Homo sapiens, UniProt P42336); test: Transcreener KINASE Assay, kinase inhibition of p110α/p85α; type: biochemical; conditions: read-out: PI3Kα IC50
# Procedure, shortened: (§1)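 ADP production was read by fluorescence polarization immunoassay (60 min detection step) after an 80 min room-temperature reaction of p110/p85α enzyme, compound in 2% DMSO, and PIP2/ATP solution (30 uM/10 uM as added) in HEPES buffer with MgCl2 and DTT. IC50s came from inhibition versus the DMSO control.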
# p110δ/p85α = p110δ/p85α (Homo sapiens, UniProt O00329); test: Transcreener KINASE Assay, kinase inhibition of p110δ/p85α; type: biochemical; conditions: for PI3Kδ IH % @ 1 uM: 1 uM test compound; for IC50: read-out: PI3Kδ IC50
# Procedure, shortened: as §1
# PI3Kγ = PI3Kγ (Mus musculus, UniProt Q9JHG7); test: Acumen Assay - Raw264.7 p-AKT Assay (C5a stimulated); type: cell-based; conditions: Raw264.7 macrophage cells, compound 30 min, stimulated with 10 nM C5a for 5 min, p-AKT (Ser473) readout; read-out: PI3Kγ cell-C5a Raw264.7 IC50
# Description: Acumen Assay—Raw264.7 p-AKT Assay
# Acumen® eX3 (A Multilaser Microplate Cytometer For Enhanced High Content Screening): TTP LabTech
# 3×10^4 Raw264.7 macrophage cells were seeded into 96-well plates with DMEM+10% heat-inactivated FBS at […], 90 ul/well, overnight. After starvation for 3 hr at 37° C. under 5% CO2, Raw264.7 cells were treated with 10 ul/well various concentrations of compound or 0.5% DMSO for 30 min, and then stimulated with 10 ul/well 10 nM C5a for 5 min.
# 1.) Cells were fixed 110 μL of 4% pre-warmed Paraformaldehyde (2% final), incubate for 45 min at room temperature. 2.) Remove paraformaldehyde solution. Add 100 μL of ice-cold 0.1% Triton X-100 in PBS and leave at 4° C. for 30 min. 3.) Wash once in 100 μL PBS. 4.) Incubate with 100 μL blocking buffer (1% BSA, in PBS) for 2 hours at room temperature. 5.) Wash once for 5 min with 100 ul PBS. 6.) Incubate with 40 μL 1:200 dilution of phospho AKT (Ser473) rabbit antibody in antibody dilution buffer (0.1% BSA, in PBS) overnight at 4° C. 7.) Wash for 3 times for 10 min with 100 ul PBS. 8.) Incubate for 90 min at room temperature with 50 μL of goat anti-rabbit Alex488 antibody at a 1:1,000 dilution in antibody dilution buffer (0.1% BSA, in PBS). Cover plate in foil to keep out of light. 9.) Wash for 3 times for 10 min with 100 μL PBS. 10.) Add 50 μL of 1.5 μM Propidium Iodide solution to each well to determine cell number at a 1:1,000 dilution in PBS (stock: 1.5 mM). 11.) Incubate at room temperature for 30 min. 12.) Seal the plate with a black cover-seal (supplied with plate). 13.) Load the plate into the Acumen Explorer and scan with the appropriate instrument settings.
# p110β/p85α = p110β/p85α (Homo sapiens, UniProt P42338); test: Transcreener KINASE Assay, kinase inhibition of p110β/p85α; type: biochemical; conditions: for PI3Kβ IH % @ 1 uM: 1 uM test compound; for IC50: read-out: PI3Kβ IC50
# Procedure, shortened: as §1
# p110δ/p85α, sequence (O00329 whole entry): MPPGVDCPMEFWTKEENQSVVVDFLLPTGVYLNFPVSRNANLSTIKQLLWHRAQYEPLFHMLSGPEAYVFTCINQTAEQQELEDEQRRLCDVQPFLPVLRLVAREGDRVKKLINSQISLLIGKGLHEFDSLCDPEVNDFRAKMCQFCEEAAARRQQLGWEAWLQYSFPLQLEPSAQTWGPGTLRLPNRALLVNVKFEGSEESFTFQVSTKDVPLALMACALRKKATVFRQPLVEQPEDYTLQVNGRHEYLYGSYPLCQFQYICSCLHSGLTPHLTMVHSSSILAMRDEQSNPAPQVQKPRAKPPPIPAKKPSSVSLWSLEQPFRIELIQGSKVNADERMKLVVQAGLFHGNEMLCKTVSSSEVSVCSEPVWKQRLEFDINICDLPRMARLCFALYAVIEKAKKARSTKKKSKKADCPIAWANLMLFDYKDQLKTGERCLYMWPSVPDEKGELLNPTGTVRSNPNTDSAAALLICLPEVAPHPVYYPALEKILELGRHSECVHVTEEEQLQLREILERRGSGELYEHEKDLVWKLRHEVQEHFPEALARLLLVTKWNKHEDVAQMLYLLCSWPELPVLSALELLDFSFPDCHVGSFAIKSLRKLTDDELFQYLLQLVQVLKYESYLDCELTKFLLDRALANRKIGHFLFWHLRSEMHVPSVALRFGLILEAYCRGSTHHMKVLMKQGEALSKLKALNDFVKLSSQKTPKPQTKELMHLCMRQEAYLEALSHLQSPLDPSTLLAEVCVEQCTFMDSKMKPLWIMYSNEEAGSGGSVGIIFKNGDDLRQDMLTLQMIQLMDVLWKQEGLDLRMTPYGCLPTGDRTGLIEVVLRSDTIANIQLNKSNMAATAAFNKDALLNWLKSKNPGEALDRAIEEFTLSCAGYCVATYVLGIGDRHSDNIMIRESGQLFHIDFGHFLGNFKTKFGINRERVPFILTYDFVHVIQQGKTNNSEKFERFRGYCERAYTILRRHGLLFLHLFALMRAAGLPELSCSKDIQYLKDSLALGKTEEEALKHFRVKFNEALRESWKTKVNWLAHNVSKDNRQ
# p110δ/p85α, sequence (P27986 whole entry partner): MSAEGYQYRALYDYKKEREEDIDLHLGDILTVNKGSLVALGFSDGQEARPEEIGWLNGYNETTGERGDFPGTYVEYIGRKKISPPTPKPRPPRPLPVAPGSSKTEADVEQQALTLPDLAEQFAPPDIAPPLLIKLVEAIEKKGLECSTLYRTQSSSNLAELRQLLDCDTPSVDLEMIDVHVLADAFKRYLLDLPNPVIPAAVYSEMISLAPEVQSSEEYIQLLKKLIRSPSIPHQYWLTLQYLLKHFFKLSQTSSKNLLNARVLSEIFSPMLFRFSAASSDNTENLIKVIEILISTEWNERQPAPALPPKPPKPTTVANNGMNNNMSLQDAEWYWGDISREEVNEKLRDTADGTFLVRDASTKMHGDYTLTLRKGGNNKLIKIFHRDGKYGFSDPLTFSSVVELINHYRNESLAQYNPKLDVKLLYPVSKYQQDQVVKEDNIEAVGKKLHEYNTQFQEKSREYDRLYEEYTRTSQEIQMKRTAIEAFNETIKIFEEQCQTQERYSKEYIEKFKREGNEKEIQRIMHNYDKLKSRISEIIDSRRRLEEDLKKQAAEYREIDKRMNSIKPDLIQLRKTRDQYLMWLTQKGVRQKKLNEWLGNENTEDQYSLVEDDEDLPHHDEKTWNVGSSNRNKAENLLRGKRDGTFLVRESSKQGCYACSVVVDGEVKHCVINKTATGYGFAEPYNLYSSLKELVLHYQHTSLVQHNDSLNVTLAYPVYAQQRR
# p110β/p85α, sequence (P42338 whole entry): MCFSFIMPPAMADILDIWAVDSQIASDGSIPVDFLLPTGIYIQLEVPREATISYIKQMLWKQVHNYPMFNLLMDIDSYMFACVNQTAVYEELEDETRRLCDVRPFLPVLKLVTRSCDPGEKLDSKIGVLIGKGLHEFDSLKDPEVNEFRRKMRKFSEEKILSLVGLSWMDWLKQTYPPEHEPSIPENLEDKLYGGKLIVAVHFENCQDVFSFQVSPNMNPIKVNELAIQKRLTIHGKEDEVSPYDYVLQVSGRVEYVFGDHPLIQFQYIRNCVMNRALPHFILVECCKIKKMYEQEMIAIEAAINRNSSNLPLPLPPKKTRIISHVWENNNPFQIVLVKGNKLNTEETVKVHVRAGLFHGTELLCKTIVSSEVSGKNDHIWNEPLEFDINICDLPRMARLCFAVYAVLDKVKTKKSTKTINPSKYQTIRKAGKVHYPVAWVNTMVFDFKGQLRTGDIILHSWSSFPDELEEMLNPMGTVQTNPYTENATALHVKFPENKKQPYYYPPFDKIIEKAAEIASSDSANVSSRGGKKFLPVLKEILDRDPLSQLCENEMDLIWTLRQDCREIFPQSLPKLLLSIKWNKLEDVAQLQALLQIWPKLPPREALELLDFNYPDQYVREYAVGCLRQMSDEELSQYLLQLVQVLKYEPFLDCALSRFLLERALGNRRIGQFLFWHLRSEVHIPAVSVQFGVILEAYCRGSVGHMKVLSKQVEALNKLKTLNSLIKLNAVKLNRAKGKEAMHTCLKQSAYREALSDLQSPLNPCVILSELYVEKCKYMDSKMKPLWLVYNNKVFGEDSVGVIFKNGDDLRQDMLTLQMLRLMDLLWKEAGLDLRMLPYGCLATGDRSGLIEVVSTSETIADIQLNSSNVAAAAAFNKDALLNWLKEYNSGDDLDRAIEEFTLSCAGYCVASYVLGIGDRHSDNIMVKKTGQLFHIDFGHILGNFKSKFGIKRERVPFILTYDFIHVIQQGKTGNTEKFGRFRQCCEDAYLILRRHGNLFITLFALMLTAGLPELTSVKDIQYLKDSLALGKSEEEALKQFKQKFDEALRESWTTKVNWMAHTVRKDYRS
# p110β/p85α, sequence (P27986 2-724 partner): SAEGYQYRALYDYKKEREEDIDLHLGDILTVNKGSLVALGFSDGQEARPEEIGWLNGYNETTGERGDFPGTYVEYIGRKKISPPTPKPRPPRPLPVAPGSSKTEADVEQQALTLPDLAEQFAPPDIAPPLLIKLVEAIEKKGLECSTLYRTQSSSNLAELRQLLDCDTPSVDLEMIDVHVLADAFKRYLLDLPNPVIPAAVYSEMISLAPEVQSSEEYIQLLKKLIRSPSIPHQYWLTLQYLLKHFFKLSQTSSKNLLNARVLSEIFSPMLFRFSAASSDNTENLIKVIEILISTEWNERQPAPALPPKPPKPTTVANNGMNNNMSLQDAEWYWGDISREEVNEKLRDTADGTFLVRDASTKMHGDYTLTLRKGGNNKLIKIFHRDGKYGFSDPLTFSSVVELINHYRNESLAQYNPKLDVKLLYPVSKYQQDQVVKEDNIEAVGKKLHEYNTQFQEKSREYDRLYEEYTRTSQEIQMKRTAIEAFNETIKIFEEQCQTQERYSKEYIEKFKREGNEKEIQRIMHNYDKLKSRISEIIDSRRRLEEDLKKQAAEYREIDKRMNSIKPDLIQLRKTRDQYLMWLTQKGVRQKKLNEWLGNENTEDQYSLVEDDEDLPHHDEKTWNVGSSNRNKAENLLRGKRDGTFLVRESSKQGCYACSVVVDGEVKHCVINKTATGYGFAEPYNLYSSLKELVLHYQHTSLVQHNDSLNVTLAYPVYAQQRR
# PI3Kγ, sequence (Q9JHG7 whole entry): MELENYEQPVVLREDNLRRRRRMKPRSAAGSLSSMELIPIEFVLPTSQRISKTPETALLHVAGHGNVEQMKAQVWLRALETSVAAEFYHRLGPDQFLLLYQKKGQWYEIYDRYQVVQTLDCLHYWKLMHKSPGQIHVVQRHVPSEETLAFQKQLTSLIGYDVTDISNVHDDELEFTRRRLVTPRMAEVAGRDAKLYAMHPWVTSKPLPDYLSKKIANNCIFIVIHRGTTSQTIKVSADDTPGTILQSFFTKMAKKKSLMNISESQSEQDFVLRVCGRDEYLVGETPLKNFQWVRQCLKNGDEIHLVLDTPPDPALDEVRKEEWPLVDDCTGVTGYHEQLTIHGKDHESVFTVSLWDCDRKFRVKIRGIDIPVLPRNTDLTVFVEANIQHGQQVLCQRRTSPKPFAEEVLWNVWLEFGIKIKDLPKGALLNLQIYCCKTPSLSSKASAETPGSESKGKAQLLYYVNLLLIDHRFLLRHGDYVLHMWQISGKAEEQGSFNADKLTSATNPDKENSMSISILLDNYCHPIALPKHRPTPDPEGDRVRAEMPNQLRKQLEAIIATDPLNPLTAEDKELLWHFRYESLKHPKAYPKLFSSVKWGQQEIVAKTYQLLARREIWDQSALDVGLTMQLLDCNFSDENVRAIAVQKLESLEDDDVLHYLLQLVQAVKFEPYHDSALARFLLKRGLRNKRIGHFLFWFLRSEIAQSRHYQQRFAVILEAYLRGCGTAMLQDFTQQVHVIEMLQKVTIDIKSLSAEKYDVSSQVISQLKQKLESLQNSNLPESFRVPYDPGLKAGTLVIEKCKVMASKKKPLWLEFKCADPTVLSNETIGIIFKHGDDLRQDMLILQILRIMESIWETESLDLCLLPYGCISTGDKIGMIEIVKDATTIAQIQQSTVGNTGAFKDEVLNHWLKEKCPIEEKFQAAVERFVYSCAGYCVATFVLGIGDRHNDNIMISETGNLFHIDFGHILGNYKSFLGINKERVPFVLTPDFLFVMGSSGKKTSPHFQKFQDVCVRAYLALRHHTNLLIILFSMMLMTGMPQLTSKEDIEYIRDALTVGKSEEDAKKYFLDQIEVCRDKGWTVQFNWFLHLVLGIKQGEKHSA
Structure (SMILES),PI3Kγ IH % @ 1 uM (p110γ) [%],IC50 (p110γ) [nM],IC50 (p110α/p85α) [nM],PI3Kδ IH % @ 1 uM (p110δ/p85α) [%],IC50 (p110δ/p85α) [nM],IC50 (PI3Kγ) [nM],PI3Kβ IH % @ 1 uM (p110β/p85α) [%],IC50 (p110β/p85α) [nM]
CC(=O)c1cnc(N)nc1N1C[C@H](C)[C@H]1c1nn2ccc(Cl)c2c(=O)n1-c1ccccn1 [Compound 473],97.0,10,921,>100,2,36,67.3,454
Cc1nc(N)nc(N2CCC2c2nn3ccc(Cl)c3c(=O)n2-c2ccccn2)c1C#N (stereo not shown) [Compound 475],93.3,13,–,94.9,2,94,80.3,83
C[C@H]1CN(c2nc(N)nc(N)c2C#N)[C@@H]1c1nn2ccc(Cl)c2c(=O)n1-c1ccc(F)cc1 [Compound 480],>100,2,648,>100,3,11,93.6,81
C[C@H]1CN(c2nc(N)nc(N)c2C#N)[C@@H]1c1nn2ccc(Cl)c2c(=O)n1-c1ccccc1 [Compound 481],>100,3,558,>100,1,14,92.0,78

# Next, values leading:
PI3Kγ IH % @ 1 uM (p110γ) [%],IC50 (p110γ) [nM],IC50 (p110α/p85α) [nM],PI3Kδ IH % @ 1 uM (p110δ/p85α) [%],IC50 (p110δ/p85α) [nM],IC50 (PI3Kγ) [nM],PI3Kβ IH % @ 1 uM (p110β/p85α) [%],IC50 (p110β/p85α) [nM],Structure (SMILES)
>100,13,–,>100,22,51,41.5,–,"CC(=O)c1cnc(N)nc1N1CC[C@H]1c1nn2ccc(C(F)(F)F)c2c(=O)n1-c1ccccc1 [Compound 486, (S)-2-(1-(5-acetyl-2-aminopyrimidin-4-yl)azetidin-2-yl)-3-phenyl-5-(trifluoromethyl)pyrrolo[2,1-f][1,2,4]triazin-4(3H)-one]"
>100,8,–,>100,6,46,64.7,–,Cc1nc(N)nc(N2CC[C@H]2c2nn3ccc(C(F)(F)F)c3c(=O)n2-c2ccccc2)c1C#N [Compound 487]
>100,8,–,>100,3,23,63.6,296,CC(=O)c1cnc(N)nc1N1C[C@H](C)[C@H]1c1nn2ccc(C(F)(F)F)c2c(=O)n1-c1ccccc1 [Compound 489]
>100,12,–,97.73,30,12,50.7,–,CC(=O)c1c(N)nc(N)nc1N1CCC1c1nn2ccc(Cl)c2c(=O)n1-c1ccccc1 (stereo not shown) [Compound 492]
>100,8,–,99.7,6,8,73.6,250,CC(=O)c1c(N)nc(N)nc1N1C[C@H](C)C1c1nn2ccc(Cl)c2c(=O)n1-c1cccc(F)c1 (stereo partly shown) [Compound 493]
17.2,–,–,34.2,–,2,18.3,–,Cc1cc(Cl)c2c(=O)n(-c3ccccc3)c([C@@H]3CCN3c3ncnc4[nH]cnc34)nn12 [Compound 496]
